Reference: EP0541617B1, “1,4-DISUBSTITUTED PIPERAZINES” (NOVO NORDISK A/S, priority 1990, dated 1992)

Legend:
[1] = tested on: Male NMRI mice; assay: Test 2: increase of motility of mice after intravenous administration (photocell crossings); assay type: in vivo; settings: ED50, i.v., lowest ED50 value determined at a 20 min interval during the 360 min test period
Protocol: The compounds were also tested for their ability to increase the motility of mice following intravenous administration using the method outlined below.
Male NMRI mice are used (20 ± 2 g). The animals are housed 20-30 per cage under constant temperature (20 ± 1°C) and relative humidity (40-60%). The animals are brought into the experimental room in the afternoon, the day before they undergo testing.
The experimentally-naive, uninjected mice are acclimatized by being placed in a plexiglass box (WLH: 20 x 20 x 38 cm), four per box, for a 120 min period, and then injected with the test compound whereafter they are replaced in the plexiglass box.
The plexiglass box is equipped with a frame of photocells (spaced equidistantly) which are situated so as to detect locomotor behaviour of the animals (1 cm above the floor). The photocell chamber is housed in an sound-insulated, dimly-lit, ventilated chest. As a measure of exploratory behaviour, the number of photocell crossings in a 360 min period is detected using a minicomputer. Testing is made between 7:00 and 17.00 h.
Drugs are injected i.v. simultaneously with start of testing; N = 4/dose; 4-5 doses of test drug is given in a volume of 10 ml/kg. […]

[2] = molecular target: T1, DA-uptake complex (Rattus norvegicus, UniProt P23977); assay: Test 1: inhibition of 3H-GBR 12935 binding in a striatal membrane preparation
T1 construct: in a striatal membrane preparation; from tissue; host or cells: striatum (membrane preparation)
T1 sequence (P23977 whole entry, one chain of several): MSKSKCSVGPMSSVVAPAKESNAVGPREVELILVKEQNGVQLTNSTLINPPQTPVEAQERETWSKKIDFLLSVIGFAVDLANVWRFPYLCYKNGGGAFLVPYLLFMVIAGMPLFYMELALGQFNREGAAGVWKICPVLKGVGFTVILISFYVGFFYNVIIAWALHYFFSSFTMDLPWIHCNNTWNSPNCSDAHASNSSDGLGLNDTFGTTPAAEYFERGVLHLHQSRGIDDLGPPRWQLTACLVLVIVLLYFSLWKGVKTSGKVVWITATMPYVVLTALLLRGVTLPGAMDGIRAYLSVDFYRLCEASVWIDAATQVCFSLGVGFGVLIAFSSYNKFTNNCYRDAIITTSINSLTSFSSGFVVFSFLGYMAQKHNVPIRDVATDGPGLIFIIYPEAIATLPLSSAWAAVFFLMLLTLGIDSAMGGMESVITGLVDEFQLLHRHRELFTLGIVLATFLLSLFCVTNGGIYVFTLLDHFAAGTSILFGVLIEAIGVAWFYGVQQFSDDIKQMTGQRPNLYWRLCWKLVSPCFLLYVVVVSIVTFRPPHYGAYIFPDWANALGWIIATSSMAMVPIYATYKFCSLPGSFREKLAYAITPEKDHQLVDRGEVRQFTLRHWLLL

Row | Structure (SMILES) | Test 2 [1] [mg/kg] | IC50 [2] [nM]
1 | Fc1ccc(C(OCCN2CCN(CCCc3ccccc3)CC2)c2ccc(F)cc2)cc1 [GBR 12909, 1-(2-(bis(4-fluorophenyl)-methoxy)-ethyl)-4-(3-phenyl-propyl) piperazine, reference compound] | 2.3 | 
2 | N#CCCCCN1CCN(CCOC(c2ccc(F)cc2)c2ccc(F)cc2)CC1 [Example 4A, 1-[2-(bis-(4-fluorophenyl)-methoxy)-ethyl]-4-(4-cyanobutyl)-piperazine] | 2.4 | 18
